In the CheMixHub viscosity set:
Where “and” joins values, the source holds several entries; their conditions need not be identical. Equal entries are not always repeated. ± gives the uncertainty stated by the source.

Assay: xn = mol fraction of the nth substance listed

[Br-].[Li+] + O
viscosity (293.15 K, 101 kPa, x1 = 0.0109): 1.079 ± 0.028 mPa·s
viscosity (293.15 K, 101 kPa, x1 = 0.0353): 1.245 ± 0.033 mPa·s
viscosity (293.15 K, 101 kPa, x1 = 0.0649): 1.472 ± 0.039 mPa·s
viscosity (293.15 K, 101 kPa, x1 = 0.1): 1.8 ± 0.09 mPa·s
viscosity (293.15 K, 101 kPa, x1 = 0.101): 1.854 ± 0.048 mPa·s
viscosity (293.15 K, 101 kPa, x1 = 0.12): 2.11 ± 0.1 mPa·s
viscosity (293.15 K, 101 kPa, x1 = 0.131): 2.377 ± 0.062 mPa·s
viscosity (293.15 K, 101 kPa, x1 = 0.14): 2.35 ± 0.11 mPa·s
viscosity (293.15 K, 101 kPa, x1 = 0.15): 2.6 ± 0.1 mPa·s
viscosity (293.15 K, 101 kPa, x1 = 0.16): 3.12 ± 0.15 mPa·s
viscosity (293.15 K, 101 kPa, x1 = 0.1711): 3.648 ± 0.095 mPa·s
viscosity (293.15 K, 101 kPa, x1 = 0.19): 4.21 ± 0.2 mPa·s
viscosity (293.15 K, 101 kPa, x1 = 0.2): 3.54 ± 0.17 mPa·s and 5.05 ± 0.24 mPa·s
viscosity (298.15 K, 100 kPa, x1 = 0.018): 1.019 ± 0.1 mPa·s
viscosity (298.15 K, 100 kPa, x1 = 0.035): 1.161 ± 0.12 mPa·s
viscosity (298.15 K, 100 kPa, x1 = 0.058): 1.307 ± 0.13 mPa·s
viscosity (298.15 K, 100 kPa, x1 = 0.092): 1.601 ± 0.16 mPa·s
viscosity (298.15 K, 100 kPa, x1 = 0.129): 2.164 ± 0.22 mPa·s
viscosity (298.15 K, 100 kPa, x1 = 0.17): 3.258 ± 0.33 mPa·s
viscosity (298.15 K, 100 kPa, x1 = 0.206): 5.202 ± 0.52 mPa·s
viscosity (298.15 K, 100 kPa, x1 = 0.246): 9.066 ± 0.91 mPa·s
viscosity (298.15 K, 101 kPa, x1 = 0.1): 1.6 ± 0.08 mPa·s
viscosity (298.15 K, 101 kPa, x1 = 0.12): 1.86 ± 0.09 mPa·s
viscosity (298.15 K, 101 kPa, x1 = 0.14): 2.08 ± 0.1 mPa·s
viscosity (298.15 K, 101 kPa, x1 = 0.15): 2.34 ± 0.11 mPa·s
viscosity (298.15 K, 101 kPa, x1 = 0.16): 2.79 ± 0.13 mPa·s
viscosity (298.15 K, 101 kPa, x1 = 0.19): 3.73 ± 0.18 mPa·s
viscosity (298.15 K, 101 kPa, x1 = 0.2): 3.1 ± 0.2 mPa·s and 4.45 ± 0.21 mPa·s
viscosity (298.15 K, 101 kPa, x1 = 0.22): 5.61 ± 0.27 mPa·s
viscosity (298.15 K, 101 kPa, x1 = 0.24): 7.22 ± 0.35 mPa·s
viscosity (298.15 K, 101 kPa, x1 = 0.25): 9.43 ± 0.45 mPa·s
viscosity (303.15 K, 100 kPa, x1 = 0.018): 0.916 ± 0.092 mPa·s
viscosity (303.15 K, 100 kPa, x1 = 0.035): 1.052 ± 0.11 mPa·s
viscosity (303.15 K, 100 kPa, x1 = 0.058): 1.185 ± 0.12 mPa·s
viscosity (303.15 K, 100 kPa, x1 = 0.092): 1.452 ± 0.15 mPa·s
viscosity (303.15 K, 100 kPa, x1 = 0.129): 1.972 ± 0.2 mPa·s
viscosity (303.15 K, 100 kPa, x1 = 0.17): 2.945 ± 0.3 mPa·s
viscosity (303.15 K, 100 kPa, x1 = 0.206): 4.669 ± 0.47 mPa·s
viscosity (303.15 K, 100 kPa, x1 = 0.246): 8.028 ± 0.81 mPa·s
viscosity (303.15 K, 101 kPa, x1 = 0.0109): 0.855 ± 0.022 mPa·s
viscosity (303.15 K, 101 kPa, x1 = 0.0353): 0.999 ± 0.026 mPa·s
viscosity (303.15 K, 101 kPa, x1 = 0.0649): 1.195 ± 0.031 mPa·s
viscosity (303.15 K, 101 kPa, x1 = 0.1): 1.44 ± 0.07 mPa·s
viscosity (303.15 K, 101 kPa, x1 = 0.101): 1.523 ± 0.039 mPa·s
viscosity (303.15 K, 101 kPa, x1 = 0.12): 1.66 ± 0.08 mPa·s
viscosity (303.15 K, 101 kPa, x1 = 0.131): 1.947 ± 0.05 mPa·s
viscosity (303.15 K, 101 kPa, x1 = 0.14): 1.89 ± 0.09 mPa·s
viscosity (303.15 K, 101 kPa, x1 = 0.15): 2.09 ± 0.1 mPa·s
viscosity (303.15 K, 101 kPa, x1 = 0.16): 2.48 ± 0.12 mPa·s
viscosity (303.15 K, 101 kPa, x1 = 0.1711): 2.957 ± 0.076 mPa·s
viscosity (303.15 K, 101 kPa, x1 = 0.19): 3.34 ± 0.16 mPa·s
viscosity (303.15 K, 101 kPa, x1 = 0.2): 2.77 ± 0.13 mPa·s and 3.95 ± 0.19 mPa·s
viscosity (303.15 K, 101 kPa, x1 = 0.22): 5 ± 0.24 mPa·s
viscosity (303.15 K, 101 kPa, x1 = 0.24): 6.36 ± 0.3 mPa·s
viscosity (303.15 K, 101 kPa, x1 = 0.25): 8.1 ± 0.4 mPa·s
viscosity (308.15 K, 100 kPa, x1 = 0.018): 0.832 ± 0.083 mPa·s
viscosity (308.15 K, 100 kPa, x1 = 0.035): 0.966 ± 0.097 mPa·s
viscosity (308.15 K, 100 kPa, x1 = 0.058): 1.084 ± 0.11 mPa·s
viscosity (308.15 K, 100 kPa, x1 = 0.092): 1.327 ± 0.13 mPa·s
viscosity (308.15 K, 100 kPa, x1 = 0.129): 1.806 ± 0.18 mPa·s
viscosity (308.15 K, 100 kPa, x1 = 0.17): 2.683 ± 0.27 mPa·s
viscosity (308.15 K, 100 kPa, x1 = 0.206): 4.221 ± 0.42 mPa·s
viscosity (308.15 K, 100 kPa, x1 = 0.246): 7.154 ± 0.72 mPa·s
viscosity (313.15 K, 100 kPa, x1 = 0.018): 0.764 ± 0.077 mPa·s
viscosity (313.15 K, 100 kPa, x1 = 0.035): 0.888 ± 0.089 mPa·s
viscosity (313.15 K, 100 kPa, x1 = 0.058): 0.998 ± 0.1 mPa·s
viscosity (313.15 K, 100 kPa, x1 = 0.092): 1.219 ± 0.12 mPa·s
viscosity (313.15 K, 100 kPa, x1 = 0.129): 1.662 ± 0.17 mPa·s
viscosity (313.15 K, 100 kPa, x1 = 0.17): 2.459 ± 0.25 mPa·s
viscosity (313.15 K, 100 kPa, x1 = 0.206): 3.841 ± 0.38 mPa·s
viscosity (313.15 K, 100 kPa, x1 = 0.246): 6.41 ± 0.64 mPa·s
viscosity (313.15 K, 101 kPa, x1 = 0.1): 1.18 ± 0.06 mPa·s
viscosity (313.15 K, 101 kPa, x1 = 0.12): 1.38 ± 0.07 mPa·s
viscosity (313.15 K, 101 kPa, x1 = 0.14): 1.57 ± 0.08 mPa·s
viscosity (313.15 K, 101 kPa, x1 = 0.15): 1.72 ± 0.08 mPa·s
viscosity (318.15 K, 100 kPa, x1 = 0.018): 0.705 ± 0.071 mPa·s
viscosity (318.15 K, 100 kPa, x1 = 0.035): 0.822 ± 0.082 mPa·s
viscosity (318.15 K, 100 kPa, x1 = 0.058): 0.922 ± 0.092 mPa·s
viscosity (318.15 K, 100 kPa, x1 = 0.092): 1.126 ± 0.11 mPa·s
viscosity (318.15 K, 100 kPa, x1 = 0.129): 1.536 ± 0.15 mPa·s
viscosity (318.15 K, 100 kPa, x1 = 0.17): 2.263 ± 0.23 mPa·s
viscosity (318.15 K, 100 kPa, x1 = 0.206): 3.512 ± 0.35 mPa·s
viscosity (318.15 K, 100 kPa, x1 = 0.246): 5.769 ± 0.58 mPa·s
viscosity (323.15 K, 100 kPa, x1 = 0.018): 0.656 ± 0.066 mPa·s
viscosity (323.15 K, 100 kPa, x1 = 0.035): 0.763 ± 0.076 mPa·s
viscosity (323.15 K, 100 kPa, x1 = 0.058): 0.857 ± 0.086 mPa·s
viscosity (323.15 K, 100 kPa, x1 = 0.092): 1.045 ± 0.11 mPa·s
viscosity (323.15 K, 100 kPa, x1 = 0.129): 1.427 ± 0.14 mPa·s
viscosity (323.15 K, 100 kPa, x1 = 0.17): 2.093 ± 0.21 mPa·s
viscosity (323.15 K, 100 kPa, x1 = 0.206): 3.225 ± 0.32 mPa·s
viscosity (323.15 K, 100 kPa, x1 = 0.246): 5.198 ± 0.52 mPa·s
viscosity (323.15 K, 101 kPa, x1 = 0.0109): 0.593 ± 0.015 mPa·s
viscosity (323.15 K, 101 kPa, x1 = 0.0353): 0.694 ± 0.018 mPa·s
viscosity (323.15 K, 101 kPa, x1 = 0.0649): 0.842 ± 0.022 mPa·s
viscosity (323.15 K, 101 kPa, x1 = 0.101): 1.093 ± 0.028 mPa·s
viscosity (323.15 K, 101 kPa, x1 = 0.131): 1.408 ± 0.036 mPa·s
viscosity (323.15 K, 101 kPa, x1 = 0.1711): 2.093 ± 0.054 mPa·s
